In PMC10945555, “Improving Activity of New Arylurea Agents against Multidrug-Resistant and Biofilm-Producing Staphylococcus epidermidis” (ACS Medicinal Chemistry Letters, 2024):
Values after ≈ are worked out from the molar mass of the structure shown.

Key:
[1] = system: Staphylococcus epidermidis ATCC 12228; test: MIC, broth microdilution, MSSE reference strain; format: cell-based; conditions: ATCC12228, Staphylococcus epidermidis ATCC 12228, read-out: MIC MSSE
Source text: These strains included susceptible, multidrug-resistant, and biofilm-producing strains of S. epidermidis and S. aureus (MSSE, MDR/BPSE, and MDR/BPSA, respectively). The cornerstone antibiotic linezolid served as a positive control (Table 1). The impact of structural modifications at the aryloxy fragment and the aromatic moiety bound to the propyl linker on the inhibitory activity was initially investigated. […] Further optimization focused on evaluating the impact of the type of substituent and its position on the arylsulfonamide fragment’s activity.
2 Biological assay protocols
Microbiological tests were carried out under aseptic conditions in a laminar chamber of the 2nd […]
(BioTectum 1.2, Alchem Poland). The assessment of antimicrobial activity was carried out for final compounds in the form of free bases, soluble in DMSO (Merck, Germany), at the initial […]
concentration of 1 mg/mL. […]
were provided by Cayman Chemical, USA.
The activity of all newly synthesized compounds was tested in vitro on a panel of selected reference strains from the American Type Culture Collection (ATCC) of Gram-positive […]
2.2 Effect of evaluated compounds on planktonic cells
The susceptibility of three reference bacterial strains (Staphylococcus epidermidis ATCC […]
Table S1) and 81 clinical MDR S. epidermidis (Table S2) to the tested compounds was assessed by determining the MIC value (Minimal Inhibitory Concentration) by microdilution in a liquid medium in 96-well flat-bottom cell culture plates (Nest Biotechnology Scientific, USA). The antibacterial properties of the compo unds were tested in the concentration range from 50 µg/mL to 0.1 µg/mL by making a series of double dilutions of the compound in liquid Mueller -Hinton II Broth Cation Adjusted (MHB II, BBL TM, USA) according to the European Committee on […]
Antimicrobial Susceptibility Testing guidelines (EUCAST).2,3 The determinations were performed twice. The MIC50 and MIC90 values were determined for each of the tested

H9c2 cells = test: Cytotoxicity, MTT assay, cardiomyocytes; format: cell-based; conditions: Rattus norvegicus, 24 h, n = 3
Protocol: (§1) The following cell models were used in the research: rat cardiomyocytes (H9c2 line) and human skin fibroblasts (BJ line). All cell lines used in the work are commercially available and were purchased from ATCC banks (the American Type Culture Collection, Manassas, VI, USA). Cell cultures were carried out in an incubator under standard conditions (37°C, 5% CO 2).
(§2) Culture media (Dulbecco's Modified Eagle's Medium -DMEM (H9c2) and Eagle's Minimum Essential Medium-EMEM (BJ) were supplemented with 10% bovine serum and a 1% mixture of penicillin and streptomycin antibiotics. […]
(§3) doxorubicin (a cytotoxic drug) were used as reference and positive control, respectively. […]
(§4) incubated with studied compound in appropriate concentration for next 24 h. Then MTT solution (5 mg/mL) was transferred into culture medium of incubated cells. After 3 h, once dark crystals of formazan were produced in cells, medium was aspirated and 100 μ L of DMSO was added to dissolve formazan. Absorbance of DMSO solution was read on a multiwell plate reader (Spectra Max iD3, Molecular Devices) at 570 nm. In order to determine viability, absorbance of experimental wells was divided by absorbance of contro l well (not treated) and multiplied by 100 (%). Three separate experiments were performed. IC 50 was calculated using non-linear regression method in OriginPro software. […]

BJ cells = test: Cytotoxicity, MTT assay, skin fibroblasts; format: cell-based, human; conditions: for IC50: Homo sapiens, MTT, 24 h, n = 3
Protocol: as §1, §2, §3
as §4, with “solution” for “incubated with studied compound in appropriate concentration for next 24 h. Then MTT solution”

[2] = system: biofilm-producing Staphylococcus epidermidis strains; test: Inhibition of biofilm formation (MBIC, resazurin); format: cell-based
Protocol: After 24 hours incubation each well of
concentration of 4 mg/mL was added. […]

[3] = S. epidermidis ATCC 35984 (Table S4)
[4] = clinical strain 25 (Table S4, Figure 2)

## O=S(=O)(NC1CCN(CCC(Oc2ccc(C(F)(F)F)cc2)c2ccccc2)CC1)c1cccc(Cl)c1 (stereo not drawn) [Compound 12]
[1]
  MIC: ≤ 6.25 µg/mL
H9c2 cells
  IC50: 14.2 µg/mL (≈ 25.7 µM)
BJ cells
  IC50: 7.4 µg/mL (≈ 13.4 µM)
[2]; [3]
  MBIC: 31.25 µg/mL
[2]; Table S4 strains
  MBIC50: 125 µg/mL
[2]; clinical strain 1 (Table S4)
  MBIC: 125 µg/mL
[2]; clinical strain 2 (Table S4)
  MBIC: 125 µg/mL
[2]; clinical strain 3 (Table S4)
  MBIC: 125 µg/mL
[2]; clinical strain 4 (Table S4)
  MBIC: 125 µg/mL
[2]; clinical strain 5 (Table S4)
  MBIC: 62.5 µg/mL
[2]; clinical strain 6 (Table S4)
  MBIC: 125 µg/mL
[2]; clinical strain 7 (Table S4)
  MBIC: 125 µg/mL
[2]; clinical strain 8 (Table S4)
  MBIC: 15.6 µg/mL
[2]; clinical strain 9 (Table S4)
  MBIC: 125 µg/mL
[2]; clinical strain 11 (Table S4)
  MBIC: 125 µg/mL
[2]; clinical strain 12 (Table S4)
  MBIC: 125 µg/mL
[2]; clinical strain 13 (Table S4)
  MBIC: 62.5 µg/mL
[2]; clinical strain 15 (Table S4)
  MBIC: 125 µg/mL
[2]; clinical strain 16 (Table S4)
  MBIC: 62.5 µg/mL
[2]; clinical strain 17 (Table S4)
  MBIC: 62.5 µg/mL
[2]; clinical strain 19 (Table S4)
  MBIC: 31.25 µg/mL
[2]; clinical strain 21 (Table S4)
  MBIC: 125 µg/mL
[2]; clinical strain 22 (Table S4)
  MBIC: 125 µg/mL
[2]; clinical strain 23 (Table S4)
  MBIC: 31.25 µg/mL
[2]; [4]
  MBIC: 31.25 µg/mL
[2]; clinical strain 26 (Table S4)
  MBIC: 125 µg/mL
[2]; clinical strain 27 (Table S4)
  MBIC: 250 µg/mL
[2]; clinical strain 28 (Table S4)
  MBIC: 62.5 µg/mL
[2]; clinical strain 29 (Table S4)
  MBIC: 62.5 µg/mL
[2]; clinical strain 30 (Table S4)
  MBIC: 62.5 µg/mL
[2]; clinical strain 33 (Table S4)
  MBIC: 125 µg/mL
[2]; clinical strain 35 (Table S4)
  MBIC: 125 µg/mL
[2]; clinical strain 36 (Table S4)
  MBIC: 62.5 µg/mL
[2]; clinical strain 37 (Table S4)
  MBIC: 125 µg/mL
[2]; clinical strain 39 (Table S4)
  MBIC: 31.25 µg/mL
[2]; clinical strain 40 (Table S4)
  MBIC: 125 µg/mL
[2]; clinical strain 41 (Table S4)
  MBIC: 125 µg/mL
[2]; clinical strain 42 (Table S4)
  MBIC: 125 µg/mL
[2]; clinical strain 43 (Table S4)
  MBIC: 250 µg/mL
[2]; clinical strain 44 (Table S4)
  MBIC: 31.25 µg/mL
[2]; clinical strain 45 (Table S4)
  MBIC: 125 µg/mL
[2]; clinical strain 46 (Table S4)
  MBIC: 125 µg/mL
[2]; clinical strain 47 (Table S4)
  MBIC: 62.5 µg/mL
[2]; clinical strain 49 (Table S4)
  MBIC: 31.25 µg/mL
[2]; clinical strain 51 (Table S4)
  MBIC: 125 µg/mL
[2]; clinical strain 55 (Table S4)
  MBIC: 125 µg/mL
[2]; clinical strain 58 (Table S4)
  MBIC: 125 µg/mL
[2]; clinical strain 59 (Table S4)
  MBIC: 125 µg/mL
[2]; clinical strain 65 (Table S4)
  MBIC: 125 µg/mL
[2]; clinical strain 66 (Table S4)
  MBIC: 125 µg/mL
[2]; clinical strain 67 (Table S4)
  MBIC: 125 µg/mL
[2]; clinical strain 70 (Table S4)
  MBIC: 125 µg/mL
[2]; clinical strain 73 (Table S4)
  MBIC: 31.25 µg/mL
[2]; clinical strain 74 (Table S4)
  MBIC: 125 µg/mL
[2]; clinical strain 75 (Table S4)
  MBIC: 31.25 µg/mL
[2]; clinical strain 78 (Table S4)
  MBIC: 31.25 µg/mL
[2]; clinical strain 79 (Table S4)
  MBIC: 31.25 µg/mL

## O=C(Nc1cccc(Cl)c1)NC1CCN(CCC(Oc2ccc(C(F)(F)F)cc2)c2cccs2)CC1 (stereo not drawn) [Compound 25]
H9c2 cells
  IC50: 26.9 µg/mL (≈ 50 µM)
BJ cells; 18 hours, sector F 25 µM, G 50 µM, tested 2.5-50 µM
  visible change in the appearance of the cells: visible in sector F and G
BJ cells
  IC50: 13.2 µg/mL (≈ 24.5 µM)
[2]; [3]
  MBIC: 7.8 µg/mL
[2]; Table S4 strains
  MBIC50: 15.6 µg/mL
  MBIC90: 31.25 µg/mL
[2]; clinical strain 1 (Table S4)
  MBIC: 15.6 µg/mL
[2]; clinical strain 2 (Table S4)
  MBIC: 31.25 µg/mL
[2]; clinical strain 3 (Table S4)
  MBIC: 31.25 µg/mL
[2]; clinical strain 4 (Table S4)
  MBIC: 31.25 µg/mL
[2]; clinical strain 5 (Table S4)
  MBIC: 15.6 µg/mL
[2]; clinical strain 6 (Table S4)
  MBIC: 15.6 µg/mL
[2]; clinical strain 8 (Table S4)
  MBIC: 3.9 µg/mL
[2]; clinical strain 9 (Table S4)
  MBIC: 31.25 µg/mL
[2]; clinical strain 11 (Table S4)
  MBIC: 31.25 µg/mL
[2]; clinical strain 12 (Table S4)
  MBIC: 31.25 µg/mL
[2]; clinical strain 13 (Table S4)
  MBIC: 1.6 µg/mL
[2]; clinical strain 15 (Table S4)
  MBIC: 31.25 µg/mL
[2]; clinical strain 16 (Table S4)
  MBIC: 15.6 µg/mL
[2]; clinical strain 17 (Table S4)
  MBIC: 15.6 µg/mL
[2]; clinical strain 19 (Table S4)
  MBIC: 15.6 µg/mL
[2]; clinical strain 21 (Table S4)
  MBIC: 31.25 µg/mL
[2]; clinical strain 22 (Table S4)
  MBIC: 31.25 µg/mL
[2]; clinical strain 23 (Table S4)
  MBIC: 3.9 µg/mL
[2]; [4]
  MBIC: 7.8 µg/mL
[2]; clinical strain 26 (Table S4)
  MBIC: 31.25 µg/mL
[2]; clinical strain 27 (Table S4)
  MBIC: 31.25 µg/mL
[2]; clinical strain 28 (Table S4)
  MBIC: 15.6 µg/mL
[2]; clinical strain 29 (Table S4)
  MBIC: 15.6 µg/mL
[2]; clinical strain 30 (Table S4)
  MBIC: 1.6 µg/mL
[2]; clinical strain 33 (Table S4)
  MBIC: 31.25 µg/mL
[2]; clinical strain 35 (Table S4)
  MBIC: 31.25 µg/mL
[2]; clinical strain 36 (Table S4)
  MBIC: 15.6 µg/mL
[2]; clinical strain 37 (Table S4)
  MBIC: 31.25 µg/mL
[2]; clinical strain 39 (Table S4)
  MBIC: 1.6 µg/mL
[2]; clinical strain 40 (Table S4)
  MBIC: 15.6 µg/mL
[2]; clinical strain 41 (Table S4)
  MBIC: 31.25 µg/mL
[2]; clinical strain 42 (Table S4)
  MBIC: 31.25 µg/mL
[2]; clinical strain 43 (Table S4)
  MBIC: 15.6 µg/mL
[2]; clinical strain 44 (Table S4)
  MBIC: 15.6 µg/mL
[2]; clinical strain 45 (Table S4)
  MBIC: 31.25 µg/mL
[2]; clinical strain 46 (Table S4)
  MBIC: 31.25 µg/mL
[2]; clinical strain 47 (Table S4)
  MBIC: 15.6 µg/mL
[2]; clinical strain 49 (Table S4)
  MBIC: 15.6 µg/mL
[2]; clinical strain 51 (Table S4)
  MBIC: 31.25 µg/mL
[2]; clinical strain 55 (Table S4)
  MBIC: 31.25 µg/mL
[2]; clinical strain 58 (Table S4)
  MBIC: 31.25 µg/mL
[2]; clinical strain 59 (Table S4)
  MBIC: 31.25 µg/mL
[2]; clinical strain 65 (Table S4)
  MBIC: 31.25 µg/mL
[2]; clinical strain 66 (Table S4)
  MBIC: 15.6 µg/mL
[2]; clinical strain 67 (Table S4)
  MBIC: 31.25 µg/mL
[2]; clinical strain 70 (Table S4)
  MBIC: 31.25 µg/mL
[2]; clinical strain 73 (Table S4)
  MBIC: 7.8 µg/mL
[2]; clinical strain 74 (Table S4)
  MBIC: 15.6 µg/mL
[2]; clinical strain 75 (Table S4)
  MBIC: 15.6 µg/mL
[2]; clinical strain 78 (Table S4)
  MBIC: 7.8 µg/mL
[2]; clinical strain 79 (Table S4)
  MBIC: 7.8 µg/mL
